Assay results taken from patent US8450308B2 (Vitae Pharmaceuticals, Inc., priority 2008, dated 2013).
Like-named read-outs stand apart in the source and are kept apart here.

Molecular target: T1, truncated human beta-secretase (residues 1-458, His6-tagged at the C-terminus) (Homo sapiens, UniProt P56817)
T1 construct: truncated human beta-secretase (residues 1-458, His6-tagged at the C-terminus); His6 (C); made in house; host or cells: insect cells D. melanogaster S2 (baculovirus expression system (so in the source))
T1 sequence (P56817 22-458): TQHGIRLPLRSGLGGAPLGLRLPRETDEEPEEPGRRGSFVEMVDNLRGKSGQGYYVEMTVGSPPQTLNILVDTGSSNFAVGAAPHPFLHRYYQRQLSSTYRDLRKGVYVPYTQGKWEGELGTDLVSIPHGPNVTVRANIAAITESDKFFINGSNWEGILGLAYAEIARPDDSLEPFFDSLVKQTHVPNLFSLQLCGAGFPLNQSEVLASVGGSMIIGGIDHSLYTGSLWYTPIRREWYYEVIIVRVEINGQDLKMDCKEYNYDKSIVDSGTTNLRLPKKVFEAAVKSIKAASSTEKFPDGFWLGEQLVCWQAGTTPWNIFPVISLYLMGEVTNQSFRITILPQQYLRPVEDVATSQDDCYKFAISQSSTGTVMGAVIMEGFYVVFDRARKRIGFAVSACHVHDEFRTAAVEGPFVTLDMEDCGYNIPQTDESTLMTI
Experiment: BACE fluorescence quench assay
Type: biochemical

[1] = in vitro enzyme activity, BACE fluorescence assay, pH 4.5, read-out: IC50

Row | IC50 [1] | Structure (SMILES) | IC50
1 | 1 to 5 µM | CSc1cccc(-c2ccc3c(c2)[C@]2(C[C@@]4(CCCOC4)O3)N=C(N)N(C)C2=O)c1 [Compound 405] | –
2 | 1 to 5 µM | CN1OC2(CC3(CCN(c4ccccc4)CC3)Oc3ccc(-c4cccc(C#N)c4)cc32)N=C1N (stereo not drawn) [Compound 390] | –
3 | 5 to 10 µM | CN1C(=O)[C@@]2(C[C@]3(CCCOC3)Oc3ccc(-c4ccc5cn[nH]c5c4)cc32)N=C1N [Compound 433] | –
4 | 1 to 5 µM | CN1C(=O)C2(CC(C3CCOC(C)(C)C3)Oc3ccc(-c4cc(F)cc(Cl)c4)cc32)N=C1N (stereo not drawn) [Compound 417] | –
5 | 5 to 10 µM | Cc1ccc(C#N)cc1-c1ccc2c(c1)[C@]1(C[C@@H](C3CCOC(C)(C)C3)O2)N=C(N)N(C)C1=O (stereo partly drawn) [Compound 437] | –
6 | 5 to 10 µM | CC(C)=C[C@H](CCO)[C@@H]1C[C@@]2(N=C(N)N(C)O2)c2cc(-c3cc(F)cc(F)c3F)ccc2O1 [Compound 441] | –
7 | 0.5 to 1 µM | CN1C(=O)C2(CC3(CCCOC3)Oc3ccc(-c4cc(F)cc(F)c4F)cc32)N=C1N (stereo not drawn) [Compound 346] | –
8 | 1 to 5 µM | CN1C(=O)C2(CC(C3CCOC(C)(C)C3)Oc3ccc(-c4ccc(F)c(F)c4)cc32)N=C1N (stereo not drawn) [Compound 431] | –
9 | 1 to 5 µM | CC(C)=CC(CCO)C1CC2(N=C(N)N(C)O2)c2cc(-c3cc(C#N)ccc3F)ccc2O1 (stereo not drawn) [Compound 391] | –
10 | 1 to 5 µM | CN1C(=O)[C@@]2(C[C@]3(CCCOC3)Oc3ccc(-c4cccc(-n5cccc5)n4)cc32)N=C1N [Compound 424] | –
11 | 1 to 5 µM | CN1OC2(C[C@]3(CCCC4CCCCC43)Oc3ccc(-c4cccc(C#N)c4)cc32)N=C1N (stereo partly drawn) [Compound 394] | –
12 | 0.5 to 1 µM | CN1C(=O)C2(CC(C3CCOC(C)(C)C3)Oc3ccc(-c4cc(F)cc(F)c4)cc32)N=C1N (stereo not drawn) [Compound 372] | –
13 | 5 to 10 µM | CC(C)=CC(CCO)C1CC2(N=C(N)N(C)O2)c2cc(-c3cc(F)ccc3F)ccc2O1 (stereo not drawn) [Compound 434] | –

The remaining lines, values behind:

Row | Structure (SMILES) | IC50 [1] | IC50
14 | CN1C(=O)C2(CC(c3ccccc3)Oc3ccc(-c4ccc(C(F)(F)F)cc4)cc32)N=C1N (stereo not drawn) [Compound 56, 2′-amino-1′-methyl-2-phenyl-6-(4-(trifluoromethyl)phenyl)spiro[chroman-4,4′-imidazol]-5′(1′H)-one] | – | 10 to 50 µM
15 | CN1C(=O)C2(CC(c3cccc(F)c3F)Oc3ccc(Br)cc32)N=C1N (stereo not drawn) [Compound 42] | 5 to 10 µM | –
16 | CC(=O)Nc1cccc(-c2ccc3c(c2)C2(CC(c4ccccc4)O3)N=C(N)N(C)C2=O)c1 (stereo not drawn) [Compound 41, N-(3-(2′-amino-1′-methyl-5′-oxo-2-phenyl-1′,5′-dihydrospiro[chroman-4,4′-imidazole]-6-yl)phenyl)acetamide] | – | 1 to 5 µM
17 | COCCCOc1cccc(-c2ccc3c(c2)C2(CC4(CCCOC4)O3)N=C(N)N(C)O2)c1 (stereo not drawn) [Compound 128] | 10 to 50 µM | –
18 | CN1C(=O)C2(CC(c3ccccc3)Oc3ccc(-c4cccc(C(=O)N5CCCC5)c4)cc32)N=C1N (stereo not drawn) [Compound 61, 2′-amino-1′-methyl-2-phenyl-6-(3-(pyrrolidine-1-carbonyl)phenyl)spiro[chroman-4,4′-imidazol]-5′(1′H)-one] | – | 10 to 50 µM
19 | CN1C(=O)[C@@]2(C[C@@]3(CCCOC3)Oc3ccc(-c4cccc(C#N)c4)cc32)N=C1N [Compound 72b] | 0.1 to 0.5 µM | –
20 | CN1C(=O)C2(CC(c3cccnc3)Oc3ccc(-c4cccc(C#N)c4)cc32)N=C1N (stereo not drawn) [Compound 31] | 1 to 5 µM | –
21 | CN1C(=O)C2(CC(c3ccccc3)Oc3ccc(-c4cc(C#N)ccc4Cl)cc32)N=C1N (stereo not drawn) [Compound 21, 3-(2′-amino-1′-methyl-5′-oxo-2-phenyl-1′,5′-dihydrospiro[chroman-4,4′-imidazole]-6-yl)-4-chlorobenzonitrile] | – | 0.5 to 1 µM
22 | CN1OC2(C[C@H]([C@H]3CCOC(C)(C)C3)Oc3ccc(-c4cccc(C#N)c4F)cc32)N=C1N (stereo partly drawn) [Compound 312] | 0.1 to 0.5 µM | –
23 | CN1C(=O)[C@@]2(C[C@@]3(CCCOC3)Oc3ccc(-c4cc(C#N)cc(C(F)(F)F)c4)cc32)N=C1N [Compound 304] | 0.1 to 0.5 µM | –
24 | CN1OC2(CC(C3CCOC(C)(C)C3)Oc3ccc(-c4cc(F)cc(F)c4)cc32)N=C1N (stereo not drawn) [Compound 339] | 0.1 to 0.5 µM | –
25 | CN1C(=O)C2(CC(c3cccc(Cl)c3)Oc3ccc(-c4cccc(C#N)c4)cc32)N=C1N (stereo not drawn) [Compound 20, 3-(2′-amino-2-(3-chlorophenyl)-1′-methyl-5′-oxo-1′,5′-dihydrospiro[chroman-4,4′-imidazole]-6-yl)benzonitrile] | 0.5 to 1 µM | –
26 | CN1C(=O)[C@@]2(C[C@@]3(CCCOC3)Oc3ccc(-c4ccc(F)c(Cl)c4)cc32)N=C1N [Compound 310] | 0.1 to 0.5 µM | –
27 | CN1C(=O)C2(CC(C3CCCOC3)Oc3ccc(-c4cccc(C#N)c4)cc32)N=C1N (stereo not drawn) [Compound 1, 3-(2′-amino-1′-methyl-5′-oxo-2-(tetrahydro-2H-pyran-3-yl)-1′,5′-dihydrospiro[chroman-4,4′-imidazole]-6-yl)benzonitrile] | 0.001 to 0.1 µM | –
28 | CN1C(=O)C2(CC(c3ccccc3)Oc3ccc(-c4cccc(S(C)(=O)=O)c4)cc32)N=C1N (stereo not drawn) [Compound 28, 2′-amino-1′-methyl-6-(3-(methylsulfonyl)phenyl)-2-phenylspiro[chroman-4,4′-imidazol]-5′(1′H)-one] | – | 1 to 5 µM
29 | CN1C(=O)C2(CC(C)(c3ccccc3)Oc3ccc(-c4cccc(C#N)c4)cc32)N=C1N (stereo not drawn) [Compound 32, 3-(2′-amino-1′,2-dimethyl-5′-oxo-2-phenyl-1′,5′-dihydrospiro[chroman-4,4′-imidazole]-6-yl)benzonitrile] | 1 to 5 µM | –
30 | CN1O[C@@]2(C[C@]3(CCOC3)Oc3ccc(-c4cccc(C#N)c4)cc32)N=C1N [Compound 113b] | 0.5 to 1 µM | –
31 | CN1C(=O)[C@@]2(CC(c3cccs3)Oc3ccc(-c4cccc(C#N)c4)cc32)N=C1N (stereo in doubt) [Compound 8a, 3-((2S,4S)-2′-amino-1′-methyl-5′-oxo-2-(thiophen-2-yl)-1′,5′-dihydrospiro[chroman-4,4′-imidazole]-6-yl)benzonitrile] | 0.1 to 0.5 µM | –
32 | CN1C(=O)[C@@]2(C[C@@]3(CCCOC3)Oc3ccc(-c4cc(C#N)cc(C#N)c4)cc32)N=C1N [Compound 309] | 0.1 to 0.5 µM | –
33 | CN1C(=O)[C@@]2(C[C@]3(CCCOC3)Oc3ccc(-c4cccc(C#N)c4)cc32)N=C1N [Compound 72a] | 0.001 to 0.1 µM | –
34 | CN1C(=O)C2(CC(C3CCOC(C)(C)C3)Oc3ccc(-c4cc(C#N)ccc4C(F)(F)F)cc32)N=C1N (stereo not drawn) [Compound 284] | 0.1 to 0.5 µM | –
35 | CN1C(=O)[C@@]2(C[C@@H](c3ccccc3)Oc3ccc(-c4cccc(C#N)c4)cc32)N=C1N [Compound 2b] | 0.001 to 0.1 µM | –
36 | CC1CCC2(CC1)CC1(N=C(N)N(C)C1=O)c1cc(-c3cccc(C#N)c3)ccc1O2 (stereo not drawn) [Compound 75] | 0.1 to 0.5 µM | –
37 | CN1OC2(CC(c3ccccc3)Oc3ccc(-c4ccc(F)c(C#N)c4)cc32)N=C1N (stereo not drawn) [Compound 103, 5-(3′-amino-2′-methyl-2-phenyl-2′H-spiro(chroman-4,5′-(1,2,4)oxadiazole)-6-yl)-2-fluorobenzonitrile] | 5 to 10 µM | –
38 | CN1C(=O)C2(CC(c3ccccc3)Oc3ccc(-c4ccc(F)c(C(=O)NCCO)c4)cc32)N=C1N (stereo not drawn) [Compound 40, 5-(2′-amino-1′-methyl-5′-oxo-2-phenyl-1′,5′-dihydrospiro[chroman-4,4′-imidazole]-6-yl)-2-fluoro-N-(2-hydroxyethyl)benzamide] | – | 1 to 5 µM
39 | CN1OC2(CC(c3ccccc3)Oc3cc(F)c(-c4cccnc4F)cc32)N=C1N (stereo not drawn) [Compound 104, 7-fluoro-6-(2-fluoropyridin-3-yl)-2′-methyl-2-phenyl-2′H-spiro[chroman-4,5′-[1,2,4]oxadiazol]-3′-amine] | 5 to 10 µM | –
